Melting point, IC50 and inhibition data for 26 compounds are collected here from patent US7582773B2, “Substituted phenyl indoles” (Wyeth, priority 2003, dated 2009).

Data set [1] deals with human PAI-1 (Homo sapiens, UniProt P05121). In words: Assay for determining the IC50 of inhibition of PAI-1 (active PAI-1 bound to tPA-coated plate). The class given is biochemical. The note with it: test compound 1-50 μM, pH 7.5. As to the method:
Assay for determining the IC50 of inhibition of PAI-1. This assay is based upon the non-SDS dissociable interaction between tPA and active PAI-1. Assay plates are initially coated with human tPA (10 μg/ml). Test compounds are dissolved in DMSO at 10 mM, then diluted with physiologic buffer (pH 7.5) to a final concentration of 1-50 μM. The test compounds are incubated with human PAI-1 (50 ng/ml) for 15 minutes at room temperature. The tPA-coated plate is washed with a solution of 0.05% Tween 20 and 0.1% BSA, then the plate is blocked with a solution of 3% BSA. An aliquot of the test compound/PAI-1 solution is then added to the tPA-coated plate, incubated at room temperature for 1 hour, and washed. Active PAI-1 bound to the plate is assessed by adding an aliquot of a 1:1000 dilution of the 33B8 monoclonal antibody against human PAI-1, and incubating the plate at room temperature for 1 hour (Molecular Innovations, Royal Oak, Mich.). The plate is again washed, and a solution of goat anti-mouse IgG-alkaline phosphatase conjugate is added at a 1:50,000 dilution in goat serum. The plate is incubated 30 minutes at room temperature, washed, and a solution of alkaline phosphatase substrate is added. The plate is incubated 45 minutes at room temperature, and color development is determined at OD405 nm. The quantitation of active PAI-1 bound to tPA at varying concentrations of the test compound is used to determine the IC50. Results are analyzed using a logarithmic best-fit equation. The assay sensitivity is 5 ng/ml of human PAI-1 as determined from a standard curve ranging from 0-100 ng/ml.

For data set [2], the target named is T1, recombinant human plasminogen activator inhibitor-1 (PAI-1) (Homo sapiens, UniProt P05121).
T1 construct: purchased Molecular Innovations, Royal Oak, Mich
In words: Screening for PAI-1 inhibition (chromogenic tPA activity assay). The class given is biochemical. The method, then: Screening for PAI-1 inhibition. Test compounds are dissolved in DMSO at a final concentration of 10 mM, then diluted 100× in physiologic buffer. The inhibitory assay is initiated by the addition of the test compound (1-100 μM final concentration, maximum DMSO concentration of 0.2%) in a pH 6.6 buffer containing 140 nM recombinant human plasminogen activator inhibitor-1 (PAI-1; Molecular Innovations, Royal Oak, Mich.). Following a 1 hour incubation at room temperature, 70 nM of recombinant human tissue plasminogen activator (tPA) is added, and the combination of the test compound, PAI-1 and tPA is incubated for an additional 30 minutes. Following the second incubation, Spectrozyme-tPA (American Diagnostica, Greenwich, Conn.), a chromogenic substrate for tPA, is added and absorbance read at 405 nm at 0 and 60 minutes. Relative PAI-1 inhibition is equal to the residual tPA activity in the presence of the test compounds and PAI-1. Control treatments include the complete inhibition of tPA by PAI-1 at the molar ratio employed (2:1), and the absence of any effect of the test compound on tPA alone.

T1 sequence (P05121 24-402): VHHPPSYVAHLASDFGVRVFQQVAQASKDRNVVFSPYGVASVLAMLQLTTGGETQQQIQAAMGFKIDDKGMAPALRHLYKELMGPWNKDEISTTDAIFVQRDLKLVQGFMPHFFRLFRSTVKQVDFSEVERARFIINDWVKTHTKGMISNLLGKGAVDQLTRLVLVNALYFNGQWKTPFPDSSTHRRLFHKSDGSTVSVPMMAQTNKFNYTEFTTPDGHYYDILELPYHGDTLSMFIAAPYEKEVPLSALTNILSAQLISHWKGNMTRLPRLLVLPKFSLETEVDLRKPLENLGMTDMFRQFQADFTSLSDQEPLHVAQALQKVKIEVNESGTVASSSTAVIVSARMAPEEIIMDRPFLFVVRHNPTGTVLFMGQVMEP
Chain of human PAI-1 (P05121 24-402): as above

As for `Cc1c(Cc2ccccc2)c2cc(-c3ccc(OCc4nnn[nH]4)cc3)ccc2n1Cc1ccccc1` [1,3-Dibenzyl-2-methyl-5-[4-(1H-tetrazol-5-ylmethoxy)-phenyl]-1H-indole], the melting point fell in the range of 190 to 192 °C. This compound also registered an IC50 in data set [1] of 47.7 µM.
In the case of `c1ccc(Cc2c(-c3ccccc3)n(Cc3ccccc3)c3ccc(-c4ccc(OCc5nnn[nH]5)cc4)cc23)cc1` [1,3-Dibenzyl-2-phenyl-5-[4-(1H-tetrazol-5-ylmethoxy)-phenyl]-1H-indole], the inhibition at 25 µM in data set [2] worked out at 51%.
In turn, `Cc1c(-c2ccccc2)n(C)c2cccc(-c3ccc(OCc4nnn[nH]4)cc3)c12` [1,3-Dimethyl-2-phenyl-4-[4-(1H-tetrazol-5-ylmethoxy)-phenyl]-1H-indole] returned an IC50 in data set [1] of 32.8 µM.
For `Cc1c(-c2ccccc2)n(C)c2ccc(-c3ccc(OCc4nnn[nH]4)cc3)cc12` [1,3-Dimethyl-2-phenyl-5-[4-(1H-tetrazol-5-ylmethoxy)-phenyl]-1H-indole], half-maximal inhibition in data set [1] (IC50) required 16.5 µM.
On the same count and under the same terms, the figure for `Cc1c(C)n(Cc2ccccc2)c2ccc(-c3ccc(OCc4nnn[nH]4)cc3)cc12` [1-Benzyl-2,3-dimethyl-5-[4-(1H-tetrazol-5-ylmethoxy)-phenyl]-1H-indole] is 28.2 µM.
The compound `Cc1c(-c2ccccc2)n(Cc2ccccc2)c2cccc(-c3ccc(OCc4nnn[nH]4)cc3)c12` [1-Benzyl-3-methyl-2-phenyl-4-[4-(1H-tetrazol-5-ylmethoxy)-phenyl]-1H-indole] had a melting point of 174 to 177 °C. This compound showed an IC50 in data set [1] of 25.7 µM.
`Cc1c(-c2ccccc2)n(Cc2ccccc2)c2ccc(-c3ccc(OCc4nnn[nH]4)cc3)cc12` [1-Benzyl-3-methyl-2-phenyl-5-[4-(1H-tetrazol-5-ylmethoxy)-phenyl]-1H-indole] came in with an IC50 in data set [1] of 10.1 µM.
Same read-out and setting: the figure for `Cc1c(-c2ccccc2)n(Cc2ccccc2)c2cc(-c3ccc(OCc4nnn[nH]4)cc3)ccc12` [1-Benzyl-3-methyl-2-phenyl-6-[4-(1H-tetrazol-5-ylmethoxy)-phenyl]-1H-indole] is 36.9 µM.
The compound `CCCCCc1c(-c2ccccc2)n(Cc2ccccc2)c2ccc(-c3ccc(OCc4nnn[nH]4)cc3)cc12` [1-Benzyl-3-pentyl-2-phenyl-5-[4-(1H-tetrazol-5-ylmethoxy)-phenyl]-1H-indole] yielded a melting point of 165 to 168 °C. Moreover, inhibition in data set [1] was half-maximal at 16.3 µM (IC50).
Compound `CCCCCc1c(-c2ccccc2)n(C)c2ccc(-c3ccc(OCc4nnn[nH]4)cc3)cc12` [1-Methyl-3-pentyl-2-phenyl-5-[4-(1H-tetrazol-5-ylmethoxy)-phenyl]-1H-indole] gave a concentration for half-maximal inhibition (IC50) in data set [1] of 36.4 µM. That is a double-digit micromolar value.
`Cc1c(Cc2ccccc2)c2cc(-c3ccc(OCc4nnn[nH]4)cc3)ccc2n1C` [3-Benzyl-1,2-dimethyl-5-[4-(1H-tetrazol-5-ylmethoxy)-phenyl]-1H-indole] came in with an IC50 in data set [1] of 43.9 µM.
For `Cn1c(-c2ccccc2)c(Cc2ccccc2)c2cc(-c3ccc(OCc4nnn[nH]4)cc3)ccc21` [3-Benzyl-1-methyl-2-phenyl-5-[4-(1H-tetrazol-5-ylmethoxy)-phenyl]-1H-indole], the inhibition at 25 µM in data set [2] was determined as 56%.
`c1ccc(Cn2c3c(c4cc(-c5ccc(OCc6nnn[nH]6)cc5)ccc42)CCCC3)cc1` [9-Benzyl-6-[4-(1H-tetrazol-5-ylmethoxy)-phenyl]-2,3,4,9-tetrahydro-1H-carbazole] showed an IC50 in data set [1] of 27.5 µM. This lies in the double-digit micromolar range.
`Cn1c2c(c3cc(-c4ccc(OCc5nnn[nH]5)cc4)ccc31)CCCC2` [9-Methyl-6-[4-(1H-tetrazol-5-ylmethoxy)-phenyl]-2,3,4,9-tetrahydro-1H-carbazole] yielded an IC50 in data set [1] of 6.1 µM.
For `Cc1c(Cc2ccccc2)c2cc(-c3ccc(OCC(=O)O)cc3)ccc2n1Cc1ccccc1` [[4-(1,3-Dibenzyl-2-methyl-1H-indol-5-yl)-phenoxy]-acetic acid], the melting point fell in the range of 180 to 183 °C. The IC50 in data set [1] turned out to be 25.3 µM.
In the same order, the values of `O=C(O)COc1ccc(-c2ccc3c(c2)c(Cc2ccccc2)c(-c2ccccc2)n3Cc2ccccc2)cc1` [[4-(1,3-Dibenzyl-2-phenyl-1H-indol-5-yl)-phenoxy]-acetic acid] are 153 to 155 °C and 12.1 µM.
In the same order, the values of `Cc1c(-c2ccccc2)n(C)c2cccc(-c3ccc(OCC(=O)O)cc3)c12` [[4-(1,3-Dimethyl-2-phenyl-1H-indol-4-yl)-phenoxy]-acetic acid] are 177 to 180 °C and 33.9 µM.
On the same counts, the results for `Cc1c(C)n(Cc2ccccc2)c2ccc(-c3ccc(OCC(=O)O)cc3)cc12` [[4-(1-Benzyl-2,3-dimethyl-1H-indol-5-yl)-phenoxy]-acetic acid] are 203 to 206 °C and 51.5 µM.
`Cc1c(-c2ccccc2)n(Cc2ccccc2)c2cccc(-c3ccc(OCC(=O)O)cc3)c12` [[4-(1-Benzyl-3-methyl-2-phenyl-1H-indol-4-yl)-phenoxy]-acetic acid]: the melting point was in the range of 82 to 86 °C. Further, in data set [1], the IC50 was 23.1 µM.
On the same counts, the results for `Cc1c(-c2ccccc2)n(Cc2ccccc2)c2ccc(-c3ccc(OCC(=O)O)cc3)cc12` [[4-(1-Benzyl-3-methyl-2-phenyl-1H-indol-5-yl)-phenoxy]-acetic acid] are 173.5 to 175 °C and 18.1 µM.
In the case of `Cc1c(-c2ccccc2)n(Cc2ccccc2)c2cc(-c3ccc(OCC(=O)O)cc3)ccc12` [[4-(1-Benzyl-3-methyl-2-phenyl-1H-indol-6-yl)-phenoxy]-acetic acid], the melting point fell in the range of 202 to 205 °C. The inhibition at 25 µM in data set [2] worked out at 27%.
With `CCCCCc1c(-c2ccccc2)n(Cc2ccccc2)c2ccc(-c3ccc(OCC(=O)O)cc3)cc12` [[4-(1-Benzyl-3-pentyl-2-phenyl-1H-indol-5-yl)-phenoxy]-acetic acid], the melting point was in the range of 141 to 143 °C. The compound also came in with an IC50 in data set [1] of 15.4 µM.
In the case of `CCCCCc1c(-c2ccccc2)n(C)c2ccc(-c3ccc(OCC(=O)O)cc3)cc12` [[4-(1-Methyl-3-pentyl-2-phenyl-1H-indol-5-yl)-phenoxy]-acetic acid], the melting point lay within 146 to 148 °C. Besides, in data set [2], the inhibition at 25 µM came out at 68%.
Regarding `Cc1c(Cc2ccccc2)c2cc(-c3ccc(OCC(=O)O)cc3)ccc2n1C` [[4-(3-Benzyl-1,2-dimethyl-1H-indol-5-yl)-phenoxy]-acetic acid], the melting point fell in the range of 204 to 207 °C. In data set [1], inhibition was half-maximal at 38 µM (IC50).
`Cn1c(-c2ccccc2)c(Cc2ccccc2)c2cc(-c3ccc(OCC(=O)O)cc3)ccc21` [[4-(3-Benzyl-1-methyl-2-phenyl-1H-indol-5-yl)-phenoxy]-acetic acid]: the melting point is 179 to 181 °C. The inhibition at 25 µM in data set [2] was found to be 48%.
Compound `O=C(O)COc1ccc(-c2ccc3c(c2)c2c(n3Cc3ccccc3)CCCC2)cc1` [[4-(9-Benzyl-6,7,8,9-tetrahydro-5H-carbazol-3-yl)-phenoxy]-acetic acid] displayed a melting point of 176 to 180 °C. The IC50 in data set [1] turned out to be 35.6 µM.
